In patent US6518012B1, “Method for regulating the expression of MHC antigens and CD40 by inhibitors of histone deacetylation” (Health Research, Inc., priority 1999, dated 2003):

Assays:
cell lines employed = assay: Toxicity of deacetylase inhibitors (lift-off, trypan-blue dye exclusion, laddering, PI/annexin-V flow cytometry); assay type: cell-based; settings: 1 mM Na-butyrate for 12-48 hr
Method: Two representative DAIs, TSA and NaBu were used for this illustration. […] In some experiments, 100 U/ml γ-IFN was added with and without the deacetylase inhibitor.

HLA-DRα mRNA [1] = assay: HLA-DRα mRNA by standard PCR and real-time PCR in human cell lines JAR and SK-N-MC; assay type: cell-based; settings: JAR
Method: (§1) To determine the effect of DAIs on HLA-DRα mRNA, cytoplasmic RNA was isolated from untreated and treated human trophoblast cell line JAR using standard techniques (RNeasy System from Qiagen). Standard PCR was performed using primers for DR and CIITA (Murphy et al., 1998, Reprod Dev., Chin et al., 1994, Immunity 1:687-697). Other primers used included human and mouse GAPDH (Clontech) and forward primer 5′-[…]-3′ (SEQ ID NO:25) and reverse primer 5′-[…]-3′ (SEQ ID NO:26) for mouse CIITA. PCR products were amplified with GOLD Taq for 10 min at 95° C., then 95° C. for 30 sec, 60° C. for 60 sec (25-45 cycles), then an extension at 60° C. for 10 min.
(§2) Oligonucleotide primers and TaqMan 5′-6-FAM and 3′-TAMRA-labeled probes were synthesized in the RPCI Biopolymer Facility. Primer and probe sequences are listed under Sequence Listing and also in FIG. 9. Sequences were designed using standard software (PrimerExpress software, PE Biosystems) except for human GAPDH.
(§3) Realtime PCR reactions contained TaqMan Universal PCR Master Mix (PE Biosystems), primers at 300 nM, and probes at optimal concentrations (150-225 nM depending on gene). Reactions were carried out on an ABI PRISM 7700 Sequence Detection System (PE Biosystems). Cycling conditions were 50° C. for 2 min, 95° C. for 10 min, then 60 cycles of 95° C. for 15 sec, 60° C. for 1 min. PCR samples were run in triplicate. The detection system and quantitative PCR was carried out as described by Williamson et al. (1995, Genet Res. 65:83-93). The threshold cycle number CT corresponded to the cycle number, at which the fluorescent emission reaches 10 standard deviations above the mean fluorescent emission, measured during the early ‘baseline’ cycles of the PCR. The CT values for triplicates were averaged and normalized to GAPDH levels. […] Assuming reverse transcription efficiencies were approximately the same for each sample, relative amounts of mRNA using the comparative CT method. Fold changes in mRNA levels were calculated as 2^x where x=the difference between normalized CT values of the control and experimental samples.
To evaluate the effects of DAIs on human cells, the human trophoblast cell line was treated with 100 nM Trichostatin A (TSA), IFNγ (100 U/ml) or a combination of TSA and IFNγ for 12 hours. RNA was isolated and real time quantitative RT-PCR was carried out. The fold increase in mRNA over the control was calculated.

[2] = tested on: class II transactivator (CIITA) mRNA; assay: CIITA mRNA by standard PCR and real-time PCR in human cell lines JAR and SK-N-MC; assay type: cell-based
Method: as §1, §2, §3
[…] RNA was isolated and real time quantitative RT-PCR was carried out. The fold increase in mRNA over the control was calculated.

HLA-DRα mRNA [3] = assay: HLA-DRα mRNA by standard PCR and real-time PCR in human cell lines JAR and SK-N-MC; assay type: cell-based
[4] = tested on: MHC class II protein on the cell surface; assay: Cell surface MHC class II protein by flow cytometry on Colon 26 and J558; assay type: cell-based, mouse; settings: J558; G2/M arrest experiment with nocodazole; data not shown
Method: To determine the effect of TSA on cell surface protein expression, the J558 cell line was subjected to flow cytometric analyses as follows. Flow cytometric analyses were conducted by standard methods using cells fixed with 1.0% paraformaldehyde and analyzed on the FACScan (Becton Dickinson). Cell cycle analyses were carried out by flow cytometry with PI staining of genomic DNA. Cells were fixed and permeablized in methanol, treated with RNaseA and analyzed for DNA content by determination of FL3-area on the FACScan. The FL3-area data were analyzed with the ModFit software for determination of the percent cells in each phase of the cell cycle. In some cases, fluorescein isothiocyanate (FITC)-conjugated antibody staining was conducted prior to PI treatment and surface staining was analyzed as a function of cell cycle phase. Apoptosis was analyzed by staining with annexin-V directly conjugated with either FITC or RPE and by sub-G0 analysis of DNA staining. Expression levels without treatment are shown as shaded peaks, IFNγ treated cell expression is plotted by a thin line while the level of expression on TSA treated cells is represented by a heavy line. Isotype controls were analyzed and, in each case, fell on or below the levels shown for control cells. MC and Colon 26 treatments are shown for 50 nM TSA for 48 hours, while J558 treatment is for 25 nM TSA for 24 hours. All IFNγ treatments were 100 U/ml for the same length of time as the corresponding TSA treatment. The percent of cells staining positive for MHC class II or CD40 expression is indicated below each histogram. Since all cells were positive for MHC class I expression, the number under the histogram represents -fold change of expression calculated from the mean channel-shift after treatment relative to untreated cells. Data are representative of at least three independent experiments. Of the 13 markers analyzed on J558 cells, only class I, II and CD40 were enhanced, while levels of several non-expressed antigens were not elicited (including CD25, B7 integrin, CD40L, H2K^k and IA^k) while other markers, which were expressed, were not altered (including CD44, CD54, CD80, CD86 and CD119) by TSA treatment. […] The highest expression (21-fold induction) was achieved on J558 cells after 24 hr by 25 nM TSA. […] The separation of control and IFNγ curves in the CD40, J558 experiment depicted in FIG. 8 represents a mean channel fluorescence difference of only 1.3 and was not seen on independent replicates of the experiment.
TSA has been described as a cell cycle inhibitor that induces both G1 and especially G2/M blocks (Bestor, 1998, Nature, 393:311-312; Yoshida et al., 1988, Exp. Cell Res. 177:122-131). MHC class II, but not class I, has been reported (Inokoshi et al., 1999, Biochem. Biophys. Res. Commun., 256:372-376; Monroe et al., 1983, J. Immunol., 130:626-631) to be regulated differentially during the cell cycle. Therefore the cell cycle of the cell lines used in the present invention was analyzed by DNA staining and flow cytometry with each of the treatment conditions under study. […] Two additional methods were used to analyze cell cycle effects on MHC expression. Since it has been reported that TSA arrests cell cycle mainly in G2/M, and class II has been reported to accumulate in G2/M (Monroe et al., 1983, supra), experiments were designed to essentially arrest 100% of J558 cells in G2/M with nocodazole. […] From the above experiments, it can be concluded that DAIs have specific effects on MHC class I and II, and CD40 gene expression, which is likely not a result of its action on the cell cycle.

IAα mRNA = assay: MHC class II (IAα) mRNA by RT-PCR and real-time PCR in mouse tumor models; assay type: cell-based
Method: as §1
(§4) In order to obtain more quantitative information on fold changes in DR and CIITA after treatment with the deacetylase inhibitors, a real time fluorescence technique capable of quantitating low copy numbers of transcripts was carried out as follows. Oligonucleotide primers and TaqMan 5′-6-FAM and 3′-TAMRA-labeled probes were synthesized in the RPCI Biopolymer Facility. Primer and probe sequences are listed under Sequence Listing and also in FIG. 9. Sequences were designed using standard software (PrimerExpress software, PE Biosystems) except for human GAPDH.
(§5) Realtime PCR reactions contained TaqMan Universal PCR Master Mix (PE Biosystems), primers at 300 nM, and probes at optimal concentrations (150-225 nM depending on gene). Reactions were carried out on an ABI PRISM 7700 Sequence Detection System (PE Biosystems). Cycling conditions were 50° C. for 2 min, 95° C. for 10 min, then 60 cycles of 95° C. for 15 sec, 60° C. for 1 min. PCR samples were run in triplicate. The detection system and quantitative PCR was carried out as described by Williamson et al. (1995, Genet Res. 65:83-93). The threshold cycle number CT corresponded to the cycle number, at which the fluorescent emission reaches 10 standard deviations above the mean fluorescent emission, measured during the early ‘baseline’ cycles of the PCR. The CT values for triplicates were averaged and normalized to GAPDH levels. […] In such cases, in order to calculate a minimum fold change for other samples in the same group, the CT value was arbitrarily set at 40. […] Assuming reverse transcription efficiencies were approximately the same for each sample, relative amounts of mRNA using the comparative CT method. Fold changes in mRNA levels were calculated as 2^x where x=the difference between normalized CT values of the control and experimental samples.
(§6) To determine if the effect of DAIs on MHC class II was manifested in other tumors and in different species, the effect of TSA was tested on four commonly used mouse tumor models: the SaI fibrosarcoma, the Colon 26 adenocarcinoma, the J558 plasmacytoma and the P815 mastocytoma. TSA induced class II in all four mouse tumors examined, while the effects of IFNγ were variable (FIG. 4). Data presented for each cell line represents optimal incubation time and concentration of TSA and is compared with 100 U/ml of IFNγ at the same time point. Numbers over bars represents fold changes. […] Colon 26 and J558 that differed strikingly in their reactivity to IFNγ were selected for further evaluation. RT-PCR and real time PCR was used to examine induction of CIITA and IAα by TSA and IFNγ. A20, a constitutively positive B cell line was used as a positive control. The results are shown in FIGS. 5A-D. The numbers over bars represent fold changes. […] Since the classical IFNγ inducible genes IRF-1 and GBP as well as MHC class I mRNA were not induced by IFNγ in J558 (data not shown), this cell line may have a signaling defect in the IFNγ pathway. Unexpectedly however, and unlike either the MC or Colon 26 cells, TSA induced both CIITA (102-fold) and Iα (537-fold) in J558 as shown in FIGS. 5B and 5D.

CIITA mRNA = CIITA mRNA by RT-PCR and real-time PCR in mouse tumor cells Colon 26 and J558; assay type: cell-based
Method: as §1, §4, §5, §6

## CCCC(=O)[O-].[Na+] [sodium butyrate]
Cell lines employed
  toxicity: non toxic
HLA-DRα mRNA [1]; real time quantitative RT-PCR, 100 nM TSA, IFNγ 100 U/ml or combination for 12 hours, sodium butyrate (FIG. 2)
  fold increase in HLA-DRα (MHC class II) mRNA over the control: 12 fold
HLA-DRα mRNA [1]; standard PCR, 100 nM or 250 nM TSA or 1 mM sodium butyrate
  levels of mRNA for DR: substantial increase
[2]; JAR, real time PCR, sodium butyrate (FIG. 2)
  increase in class II transactivator (CIITA): no increase
[2]; JAR, standard PCR at 35 cycles, 100 nM or 250 nM TSA or 1 mM sodium butyrate
  CIITA transcription: undetectable
[2]; MC cells, real time PCR up to 60 cycles, 100 nM TSA 24 hr, NaBu 1 mM 48 hr, IFNγ
  CIITA mRNA fold change: no activation
[2]; SK-N-MC, routine RT-PCR at 35 cycles, 100 nM TSA 24 hours, 1 mM NaBu 48 hours, IFNγ
  CIITA transcription: undetectable
HLA-DRα mRNA [3]; MC cells, real time PCR, 100 nM TSA 24 hr, NaBu 1 mM 48 hr, IFNγ any concentration or time point
  fold increase in expression of DR: 88 fold
HLA-DRα mRNA [3]; SK-N-MC, RT-PCR, 100 nM TSA 24 hours, 1 mM NaBu 48 hours, IFNγ
  levels of mRNA for HLA-DRα (DR): substantial increase

## COC(=O)Nc1nc2ccc(C(=O)c3cccs3)cc2[nH]1 [Nocodazole, nocodazole]
[4]
  MHC class II positive cells: 23%

B1: IFNγ: gamma-interferon, cytokine used as comparator at 100 U/ml (protein, UniProt P01579 24-161, looked up)
Interferon gamma: QDPYVKEAENLKKYFNAGHSDVADNGTLFLGILKNWKEESDRKIMQSQIVSFYFKLFKNFKDDQSIQKSVETIKEDMNVKFFNSNKKKRDDFEKLTNYSVTDLNVQRKAIHELIQVMAELSPAAKTGKRKRSQMLFRG
IAα mRNA
  Iα (class II) fold induction: did not activate
CIITA mRNA
  CIITA fold induction: did not activate
